Data published in ChEMBL document CHEMBL3232879, “4,5,6,7-Tetrahydro-isoxazolo-[4,5-c]-pyridines as a new class of cytotoxic Hsp90 inhibitors” (Eur J Med Chem, 2014).

Target: T1, Protein deacetylase HDAC6 (Homo sapiens, UniProt Q9UBN7)
T1 sequence (Q9UBN7 whole entry): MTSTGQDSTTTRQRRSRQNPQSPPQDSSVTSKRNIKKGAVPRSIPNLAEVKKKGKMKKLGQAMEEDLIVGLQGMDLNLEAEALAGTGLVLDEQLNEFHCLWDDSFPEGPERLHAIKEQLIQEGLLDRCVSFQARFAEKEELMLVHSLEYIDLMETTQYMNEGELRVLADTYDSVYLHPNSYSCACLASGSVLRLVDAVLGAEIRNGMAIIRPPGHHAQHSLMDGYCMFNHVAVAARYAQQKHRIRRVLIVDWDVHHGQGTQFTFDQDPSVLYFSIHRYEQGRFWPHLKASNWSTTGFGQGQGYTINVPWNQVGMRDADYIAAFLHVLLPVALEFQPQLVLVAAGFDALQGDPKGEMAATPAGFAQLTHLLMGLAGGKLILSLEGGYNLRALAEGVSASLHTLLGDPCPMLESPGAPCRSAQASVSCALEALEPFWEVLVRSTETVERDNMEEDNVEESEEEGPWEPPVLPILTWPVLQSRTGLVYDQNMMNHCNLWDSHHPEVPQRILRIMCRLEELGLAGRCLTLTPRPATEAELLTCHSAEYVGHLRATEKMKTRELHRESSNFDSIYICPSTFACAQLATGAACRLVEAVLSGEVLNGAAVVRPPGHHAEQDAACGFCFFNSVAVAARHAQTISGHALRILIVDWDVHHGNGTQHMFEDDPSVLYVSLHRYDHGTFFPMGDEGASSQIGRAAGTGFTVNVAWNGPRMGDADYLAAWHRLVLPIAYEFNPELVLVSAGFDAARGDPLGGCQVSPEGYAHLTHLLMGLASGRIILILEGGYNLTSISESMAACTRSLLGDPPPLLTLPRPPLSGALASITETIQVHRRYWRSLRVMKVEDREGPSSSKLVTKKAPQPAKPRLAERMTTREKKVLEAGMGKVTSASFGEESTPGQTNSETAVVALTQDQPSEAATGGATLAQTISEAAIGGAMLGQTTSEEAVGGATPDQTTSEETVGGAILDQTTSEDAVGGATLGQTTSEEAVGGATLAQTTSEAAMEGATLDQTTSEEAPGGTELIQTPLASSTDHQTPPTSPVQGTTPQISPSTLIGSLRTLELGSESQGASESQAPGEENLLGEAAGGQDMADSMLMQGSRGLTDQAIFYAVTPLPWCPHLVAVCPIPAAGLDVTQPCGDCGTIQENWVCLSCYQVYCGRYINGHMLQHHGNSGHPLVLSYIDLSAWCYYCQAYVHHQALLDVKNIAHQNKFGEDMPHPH
Experiment: Inhibition of human HDAC-6 using RHKK(Ac) as substrate

Q: How did the IC50 turn out when CC(C)c1cc(C(=O)N2CCc3onc(C(=O)NCCCCCCC(=O)NO)c3C2)c(O)cc1O was run?
A: The IC50 was 4.1 nM.
